{"source": "paper PMC10388363", "about": "“Novel 1,4-Dihydropyridines as Specific Binders and Activators of SIRT3 Impair Cell Viability and Clonogenicity and Downregulate Hypoxia-Induced Targets in Cancer Cells” (Journal of Medicinal Chemistry, 2023)", "key": {"[1]": {"target": "T1, human SIRT3 (Homo sapiens, UniProt Q9NTG7)", "T1 construct": "pET151D/Topo (Sirt3-114-380 and Sirt5-34-302); His tag (N, cleaved yes); made in house; host or cells: Escherichia coli", "T1 sequence (Q9NTG7 114-380)": "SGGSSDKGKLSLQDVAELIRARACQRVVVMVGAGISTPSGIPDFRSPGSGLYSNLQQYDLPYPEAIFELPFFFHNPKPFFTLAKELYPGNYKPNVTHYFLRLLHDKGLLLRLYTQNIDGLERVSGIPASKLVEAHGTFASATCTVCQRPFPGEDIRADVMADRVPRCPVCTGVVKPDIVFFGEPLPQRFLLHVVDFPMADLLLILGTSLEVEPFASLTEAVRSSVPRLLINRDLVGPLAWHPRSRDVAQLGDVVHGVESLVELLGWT", "assay": "Surface plasmon resonance binding assay, immobilized SIRT3", "settings": "SPR, Scatchard analysis, analytes 5-80 μM", "protocol": "Next, surface plasmon resonance (SPR) experiments were conducted with selected SIRT3 activators 2e and 3a–d to ascertain their biophysical interaction with the human SIRT3 protein. Their parental compounds 2 and 3, together with honokiol, were used as positive controls. The experiments were carried out twice at different concentrations (5, 10, 20, 40, and 80 μM), by injecting the compounds at increasing doses (Figure 5). The resonance units (RU) increase with respect to baseline indicates the formation of the SIRT3/ligand complex, the plateau region represents the steady-state phase of the interaction (RUeq, RU at equilibrium) and the decrease in RU after 180 s represents dissociation of analytes from the immobilized SIRT3 protein after injection of the buffer.\nSPR experiments were carried out using a SensiQ Pioneer system (SensiQ, Oklahoma City, OK, USA), essentially as in Genovese et al. 2020[84] and in Battista et al. 2021,[85] with some modifications, as follows.\nThe sensor chip (COOH5) was chemically activated by a 35 μL injection of a 1:1 mixture of […] (200 mM) and N-hydroxysuccinimide (50 mM) at a flow rate of 5 μL/min. Sirtuin3 (ligand) was immobilized on activated sensor chips via amine coupling. Immobilization was carried out in 20 mM sodium acetate at pH 4.0; unreacted groups were blocked by injecting 1 M ethanolamine hydrochloride (35 μL). Sirtuin3 immobilization level obtained was 1500–4000 RU.\nThe analytes, dissolved in 100% DMSO at 10 mM concentration, were diluted in buffer 20 mM Hepes, 150 mM NaCl, 0.005% surfactant P20 buffer (HBSP) to a concentration of 200 μM (2% final DMSO concentration), further diluted in HBSP + 2% DMSO (HBSP2%D) and injected on the sensor chip at a constant flow rate (nominal flow rate = 30 μL/min) at the following concentrations: 5, 10, 20, 40, and 80 μM.\nThe RU increase relative to baseline indicates complex formation (taking place at known analytes concentrations at each moment in the gradient); the plateau region represents the steady-state phase of the interaction (RUeq); and the decrease in RU after 180 s represents dissociation of analytes from the immobilized Sirtiun3 after injection of HBSP2%D. Regeneration procedures are based on two long (2000 and 500 s) injections of buffer, separated by a brief (5 s) injection of 10 mM NaOH.\nControl experiments were performed in sensor chips treated as described above in the absence of an immobilized ligand. Kinetic evaluation of the sensorgrams was obtained using the SensiQ Qdat program and full fitting with 1, 2, and 3 sites; Scatchard analysis was used to determine apparent KD values."}, "[2]": {"target": "T1, human SIRT3", "set-up": "method as in PMID 36228194", "settings": "100 μM; cited from earlier work"}, "[3]": {"target": "T2, human SIRT1 (Homo sapiens, UniProt Q96EB6)", "T2 construct": "using constructs in pET15b (Sirt1); His tag (N, cleaved yes); made in house; host or cells: Escherichia coli", "T2 sequence (Q96EB6 1-747)": "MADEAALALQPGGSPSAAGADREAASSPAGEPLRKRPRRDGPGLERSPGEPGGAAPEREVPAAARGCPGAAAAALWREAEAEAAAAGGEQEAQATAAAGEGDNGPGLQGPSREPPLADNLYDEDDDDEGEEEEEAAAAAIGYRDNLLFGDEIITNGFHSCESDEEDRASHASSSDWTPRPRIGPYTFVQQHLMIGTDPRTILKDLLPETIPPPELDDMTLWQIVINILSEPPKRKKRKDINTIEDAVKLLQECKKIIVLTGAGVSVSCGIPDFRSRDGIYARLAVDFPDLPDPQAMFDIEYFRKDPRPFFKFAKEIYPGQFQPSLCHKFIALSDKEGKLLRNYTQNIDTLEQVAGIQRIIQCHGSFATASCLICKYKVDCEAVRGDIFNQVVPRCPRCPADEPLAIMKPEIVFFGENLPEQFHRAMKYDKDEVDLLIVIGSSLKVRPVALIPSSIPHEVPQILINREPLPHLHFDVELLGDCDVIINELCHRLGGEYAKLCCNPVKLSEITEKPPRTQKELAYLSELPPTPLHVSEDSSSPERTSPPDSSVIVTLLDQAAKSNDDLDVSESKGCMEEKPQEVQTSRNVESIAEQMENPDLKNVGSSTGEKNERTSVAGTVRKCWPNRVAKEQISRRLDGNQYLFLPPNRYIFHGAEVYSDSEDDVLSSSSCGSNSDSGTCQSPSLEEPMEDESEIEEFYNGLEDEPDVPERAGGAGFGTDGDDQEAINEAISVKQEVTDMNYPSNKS", "set-up": "method as in PMID 36228194", "settings": "100 μM; cited from earlier work"}}, "data": [{"smiles": "CCOC(=O)C1=CN(C(=O)c2ccccc2)C=C(C(=O)OCC)C1c1ccccc1", "note": "[Compound 2]", "values": [{"measurement": "Kd", "setting": "[1]", "result": "40 to 47", "unit": "µM"}, {"measurement": "SIRT3 activation", "setting": "[2]", "result": "over 300%"}, {"measurement": "SIRT1 activation", "setting": "[3]", "result": "below 200%"}]}]}
